The values that follow come from patent US20250186324A1, “SYNERGISTIC SKIN DEPIGMENTING COSMETIC COMPOSITION” (priority 2022, published 2025).

For one test, the system named is VEGF. Kind of test: VEGF gene expression (real-time qPCR) in dermal fibroblasts. The class given is cell-based, human. Particulars: 10 and 25 μM apigenin, 24 hours. Here is the method:
(§1) To assess the levels of key pigmentation regulatory markers in fibroblasts, dermal fibroblasts (Promocell, #C-12302) were cultured for 24 hours with the active ingredient apigenin. After the treatment, the RNA was extracted (Norgen, #17200) and real-time qPCR was performed (Takara, #R[…]) on the DKK1 and VEGF genes.
(Real-time PCR tracks product formation cycle by cycle.)

In the next test the test system is Wnt pathway. The test can be described thus: Wnt pathway in melanocytes: melanogenesis-regulating gene expression after BIO stimulation (qPCR). The format is cell-based, human. Particulars: 0.1 μM BIO; 0.5 and 5 μM apigenin or 10 and 25 μM phloretin; 24 hours; genes TYRP1, DCT, PAX3, PMEL17. As for the experimental part: After the treatment, the RNA was extracted (Norgen, #17200) and a real-time qPCR was performed (Takara, #R[…]) on the TYRP1, DCT, PAX3 and PMEL17 genes.

The subject of a further test is DKK1. Kind of test: DKK1 gene expression (real-time qPCR) in dermal fibroblasts. The format is cell-based, human. Particulars: 10 and 25 μM apigenin, 24 hours. As for the experimental part: as §1
The next test relates to miR-675. The test can be described thus: miR-675 levels in melanocytes (real-time qPCR). The note with it: human epidermal melanocytes, 0.5 μM apigenin, 24 hours. The class given is cell-based. As for the experimental part: In order to assess the effect of miRNA levels in melanocytes, human epidermal melanocytes were cultured with 0.5 μM apigenin or 10 μM phloretin for 24 hours. After the treatment, the RNA was extracted (Norgen, #17200) and a real-time qPCR was performed (Takara, #638313) on miR-675.

The next test has as its system SCF pathway. Kind of test: SCF pathway in melanocytes: melanogenesis-regulating gene expression after CBD stimulation (qPCR). The note with it: 2.5 μM cannabidiol; 0.5 and 5 μM apigenin or 10 and 25 μM phloretin; 24 hours; genes DCT, PAX3. The class given is cell-based, human. Here is the method: In order to assess the inhibition of the SCF pathway in melanocytes, human epidermal melanocytes were cultured with 2.5 μM cannabidiol (CBD)+0.5 and 5 μM apigenin or 10 and 25 μM phloretin for 24 hours. After the treatment, the RNA was extracted (Norgen, #17200) and a real-time qPCR was performed (Takara, #R[…]) on the DCT and PAX3 genes.

The next test deals with skin hyperpigmentation. Particulars: mice treated with UVB; cited from earlier work.
The next test relates to tyrosinase. Particulars: spectroscopy and chromatography; cited from earlier work.

Consider `O=c1cc(-c2ccc(O)cc2)oc2cc(O)cc(O)c12` [apigenin, 5,7-dihydroxy-2-(4-hydroxyphenyl)-4H-1-benzopyran-4-one], for which the VEGF expression result in the test on VEGF was “reduces”. In addition, the “expression of melanogenesis-regulating genes after stimulation with BIO” value in the test on Wnt pathway is reported as “significantly reduce”. Besides, the DKK1 expression result in the test on DKK1 is on record as “significantly induces”. Besides, the miR-675 levels result in the test on miR-675 was “significantly increasing”. The “expression of the melanogenesis-regulating genes after stimulation with CBD” value in the test with SCF pathway is on record as “significantly reduce”. The skin hyperpigmentation entry in the test with skin hyperpigmentation was “inhibits”.
`O=C(CCc1ccc(O)cc1)c1c(O)cc(O)cc1O` [phloretin, 3-(4-hydroxyphenyl)-1-(2,4,6-trihydroxyphenyl)propane-1-one]: the “expression of melanogenesis-regulating genes after stimulation with BIO” value in the test with Wnt pathway is “significantly reduce”. Moreover, the action on tyrosinase result in the test with tyrosinase is given as “a tyrosinase substrate but also an inhibitor”. Besides, the “expression of the melanogenesis-regulating genes after stimulation with CBD” value with SCF pathway is recorded as “significantly reduce”.
